Common to all, as to assay type: binding
Assay [1] has as its target T1, HsaDRS2 (Homo sapiens, UniProt Q6PI48).
T1 sequence (Q6PI48 41-645): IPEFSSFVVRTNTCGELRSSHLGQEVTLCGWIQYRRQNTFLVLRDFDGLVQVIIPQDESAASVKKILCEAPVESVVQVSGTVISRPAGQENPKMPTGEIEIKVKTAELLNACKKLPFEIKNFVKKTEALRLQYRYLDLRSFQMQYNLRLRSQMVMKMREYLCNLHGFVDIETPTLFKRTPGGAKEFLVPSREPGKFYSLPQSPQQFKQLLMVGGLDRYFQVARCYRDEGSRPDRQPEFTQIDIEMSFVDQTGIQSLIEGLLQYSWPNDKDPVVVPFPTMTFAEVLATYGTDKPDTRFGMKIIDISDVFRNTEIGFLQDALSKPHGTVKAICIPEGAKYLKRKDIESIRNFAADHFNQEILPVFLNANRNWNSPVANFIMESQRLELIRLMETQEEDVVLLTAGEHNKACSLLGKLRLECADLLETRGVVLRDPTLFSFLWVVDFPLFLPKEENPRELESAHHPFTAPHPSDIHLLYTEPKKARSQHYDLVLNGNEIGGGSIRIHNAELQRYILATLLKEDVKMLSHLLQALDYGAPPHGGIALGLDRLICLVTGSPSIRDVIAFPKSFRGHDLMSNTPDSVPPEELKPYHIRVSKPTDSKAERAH
Description: thermal shift by dynamic light scattering and differential scanning fluorimetry. Conditions: protein 3 mg/ml, temperature gradient. For orientation: In DSF a fluorescence change marks the thermal transition of the protein.

Assay [2] has as its target T1, HsaDRS2. Description: isothermal titration calorimetry. Background: Isothermal titration calorimetry measures the heat released or taken up as one component is titrated into another.
The target in assay [3] is T2, EcoDRS (Escherichia coli, UniProt P21889). The experiment in a line: thermal shift by dynamic light scattering. Conditions: protein 3 mg/ml, temperature gradient.
T2 sequence (P21889 whole entry): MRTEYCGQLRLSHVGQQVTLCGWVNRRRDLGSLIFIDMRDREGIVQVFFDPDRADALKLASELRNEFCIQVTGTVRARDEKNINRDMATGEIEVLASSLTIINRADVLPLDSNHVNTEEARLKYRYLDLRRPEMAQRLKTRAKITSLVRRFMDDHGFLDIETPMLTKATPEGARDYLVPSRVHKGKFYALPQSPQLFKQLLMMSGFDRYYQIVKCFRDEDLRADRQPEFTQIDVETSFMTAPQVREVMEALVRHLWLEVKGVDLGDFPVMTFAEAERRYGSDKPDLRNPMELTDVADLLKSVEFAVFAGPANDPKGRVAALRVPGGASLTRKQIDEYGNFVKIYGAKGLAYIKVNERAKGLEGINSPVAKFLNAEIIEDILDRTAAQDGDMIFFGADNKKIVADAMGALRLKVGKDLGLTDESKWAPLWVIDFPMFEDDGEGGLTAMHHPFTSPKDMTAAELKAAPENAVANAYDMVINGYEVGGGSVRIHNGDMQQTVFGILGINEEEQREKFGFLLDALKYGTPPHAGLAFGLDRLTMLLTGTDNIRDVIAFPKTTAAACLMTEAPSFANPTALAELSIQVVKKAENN
In assay [4] the target is T2, EcoDRS. Description: isothermal titration calorimetry.

Broadly, the Kd is the free concentration of one partner at which half of the binding sites on the other are occupied at equilibrium, for simple one-to-one binding. Read a high Kd as lower affinity. In the case of `Nc1ncnc2c1ncn2[C@@H]1O[C@H](COS(=O)(=O)NC(=O)[C@@H](N)CC(=O)O)[C@@H](O)[C@H]1O` [Asp–AMS, 5′-O-[N-(L-aspartyl)sulfamoyl] adenosine], the Tm entry is recorded as “Significant stabilization was observed in the presence of Asp–AMS” in assay [1] and “only Asp–AMS (dashed grey line) influences the thermostability of the two enzymes positively” in assay [3]. Moreover, the Kd in assay [2] is 17.5 ± 12 nM; in assay [4], 2.95 ± 1.34 nM.

These data come from publication PMC3575848 (Nucleic Acids Research, 2012).
